One series deals with T1, TRPM8 receptor (Homo sapiens, UniProt Q7Z2W7).
T1 construct: ChanTest Corporation
Kind of series: Receptor assay, fluorescence (Relative Fluorescence Units), ChanTest. The conditions noted are these: FIG. 4. The class given is cell-based. Here is the method: FIG. 4 is a graph of fluorescence (Relative Fluourescence Units; % Maximum) of test compounds, as a function of the logarithm of the concentration of the test compound (μM). The compounds tested were 2-4 (circle), 2-5 (square), 2-6 (inverted triangle), 2-7 (diamond), and 2-8 (star), representing the 1 [di-sec-butyl-phosphinoyl]-butane, pentane, hexane, heptane, and octane analogs, respectively. The receptor assays were conducted by ChanTest Corporation, Cleveland, Ohio 44128. […] The 95% confidence intervals of 2-5 to 2-8 overlap.
(§1) FIG. 5. illustrates the activity of 2-5 on cells transfected with the TRPA1 and TRPV1. TRPA1 and TRPV1 receptors mediate nociception: that is, stimulation of these receptors results in irritation and pain. Capsaicin and mustard oil are the positive control substances for TRPV1 and TRPA1, respectively.

For a further series, the target named is T2, TRPV1 (Homo sapiens, UniProt Q8NER1).
T2 construct: expressed in transfected cells
The series can be described thus: Activity on TRPV1 transfected cells. The conditions noted are these: FIG. 5; capsaicin positive control. Type of series: cell-based.
Text: as §1

Another series deals with skin of the eyelids. Kind of series: Irritation when applied in vivo to the skin of the eyelids. The conditions noted are these: compared among analogs 2-4 to 2-8.
In another series the test system is ocular surface. The series can be described thus: Periocular spray of 2-5 over the closed eye in normal subjects and dry eyes syndrome patients. Type of series: in vivo, human. As to the method: Sensory discomfort of the eye is a conspicuous symptom in patients diagnosed with “dry eyes disease.” The study described below was conducted by Prof. K. C. Yoon of the Department of Ophthalmology, Chonnam National University Medical School, Gwangju, South Korea. Prof. Yoon is an acknowledged expert on the investigation of dry eyes disease and has published extensively on this subject [e.g. Yoon, K.-C. et al. Application of umbilical cord serum eyedrops for the treatment of dry eye syndrome. Cornea 25, 268-72 (2006). Yoon, K.-C. et al. Comparison of autologous serum and umbilical cord serum eye drops for dry eye syndrome. Am. J. Ophthalmol. 144, 86-92 (2007).] The methods used in these two publications were also used in the experiments described below. This report was presented as an Oral Communication entitled “Effect of a periocular spray of a TRPM8 agonist on the ocular surface” at the 110th Meeting of the Korean Ophthalmological Society, Bexco, Busan, Korea on Apr. 13, 2014.
2-5 was prepared as a 2 mg/mL solution in distilled water and administered as a spray [sprayed volume of ˜0.1 mL] over the closed right eye of test subjects. There were 20 subjects in the normal group [9 males/11 females] and 17 subjects in the group with defined “dry eyes syndrome” [7 males/10 females]. Exclusion criteria for patient selection was age of <18 years, systemic medication that may affect tear secretion, previous punctal plug insertion, history of contact lenses use, previous ocular surgery or trauma, pregnancy or lactation, and ocular or systemic disease. The average age of the subjects was 29 years, and both groups had normal values for visual acuity, intraocular pressure, and corneal sensitivity [Cochet-Bonnet esthesiometry, measured with a microfilament]. […] The score for keratoepitheliopathy [National Eye Institute system] was 0.1±0.3 and 2.5±1.7, in the normal vs the “dry eyes syndrome” group.
Subjective symptoms were graded on a numerical score. A visual analog scale score [0 to 10 units] was used for grading the degree of soothing and cooling sensation on the ocular surface. For symptoms of the dry eyes syndrome, a scale of zero to four was used, with zero representing no symptoms and four representing very severe symptoms that caused discomfort and interfered with normal activities. These methods have been described in detail elsewhere and are incorporated by reference [Yoon, K.-C. et al. Application of umbilical cord serum eyedrops for the treatment of dry eye syndrome. Cornea 25, 268-72 (2006). Yoon, K.-C. et al. Comparison of autologous serum and umbilical cord serum eye drops for dry eye syndrome. Am. J. Ophthalmol. 144, 86-92 (2007)].
The onset was less than 3 min and reached maximal effect in the first 10 min. The mean duration of cooling was 42±8 min and all cooling sensations disappeared by 1 hr. For patients previously diagnosed with “dry eyes” disease there was a reduction of symptom score from 1.8 to 0.5, a highly significant event [P<0.001]. […] However, the magnitude of the effect was not considered clinically significant and may have been due to increased sensitivity of the dry eyes patients to foreign solutions applied to the ocular surface. The keratoepitheliopathy score was not affected by treatment.
The mechanical sensitivity of the cornea, measured with the Cochet-Bonnet esthesiometer, was not affected in all patients, in the 1.5 hr test period with […], spaced 30 min apart. This is an important observation from the viewpoint of safety in use, because numbness of the corneal surface will increase risks of eye injury from foreign materials.

The target in another series is T3, TRPA1 (Homo sapiens, UniProt O75762).
T3 construct: expressed in transfected cells
The series can be described thus: Activity on TRPA1 transfected cells. The class given is cell-based. The conditions noted are these: FIG. 5; mustard oil positive control.
Text: as §1

Another series has as its system human ocular surface. The conditions noted are these: for Irritancy, delivery unit: wiped across the orbital skin.
Where [1] appears, read: dry eyes group, first 30 min, not considered clinically significant.
The mark [2] stands for this setting: ethanol 5% wt/vol in water, scale 0-3.
Setting [3] is: ethanol 10% wt/vol in water, scale 0-3.

Like-named read-outs stand apart in the source and are kept apart here.

T1 sequence (Q7Z2W7 whole entry): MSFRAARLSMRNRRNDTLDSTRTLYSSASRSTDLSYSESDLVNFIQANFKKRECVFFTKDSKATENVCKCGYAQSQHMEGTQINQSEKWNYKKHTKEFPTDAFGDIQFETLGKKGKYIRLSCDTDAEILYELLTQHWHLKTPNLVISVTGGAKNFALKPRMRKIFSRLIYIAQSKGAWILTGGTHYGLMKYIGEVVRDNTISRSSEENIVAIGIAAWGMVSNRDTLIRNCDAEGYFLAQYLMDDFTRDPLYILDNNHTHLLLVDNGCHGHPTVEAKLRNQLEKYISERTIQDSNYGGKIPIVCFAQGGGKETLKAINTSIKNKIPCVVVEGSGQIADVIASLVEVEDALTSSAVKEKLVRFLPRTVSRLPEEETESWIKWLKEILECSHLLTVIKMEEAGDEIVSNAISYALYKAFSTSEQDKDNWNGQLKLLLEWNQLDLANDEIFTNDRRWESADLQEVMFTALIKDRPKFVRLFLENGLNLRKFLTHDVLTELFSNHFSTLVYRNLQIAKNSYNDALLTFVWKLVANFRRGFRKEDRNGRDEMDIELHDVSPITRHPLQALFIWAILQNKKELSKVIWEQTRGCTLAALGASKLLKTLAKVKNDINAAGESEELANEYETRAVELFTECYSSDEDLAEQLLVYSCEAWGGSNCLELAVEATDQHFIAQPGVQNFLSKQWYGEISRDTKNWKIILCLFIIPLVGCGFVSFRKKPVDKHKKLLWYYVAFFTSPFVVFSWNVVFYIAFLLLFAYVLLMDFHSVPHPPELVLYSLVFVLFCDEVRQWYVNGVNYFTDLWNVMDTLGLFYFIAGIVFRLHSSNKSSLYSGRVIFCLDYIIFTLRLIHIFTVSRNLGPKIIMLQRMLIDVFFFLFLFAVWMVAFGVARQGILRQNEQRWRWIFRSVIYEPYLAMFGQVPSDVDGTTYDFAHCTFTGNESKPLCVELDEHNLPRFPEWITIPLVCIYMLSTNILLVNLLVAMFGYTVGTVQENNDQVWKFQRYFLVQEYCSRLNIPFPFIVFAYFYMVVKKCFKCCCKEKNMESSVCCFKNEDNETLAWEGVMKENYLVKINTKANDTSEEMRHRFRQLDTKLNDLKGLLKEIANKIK
T2 sequence (Q8NER1 whole entry, species assumed): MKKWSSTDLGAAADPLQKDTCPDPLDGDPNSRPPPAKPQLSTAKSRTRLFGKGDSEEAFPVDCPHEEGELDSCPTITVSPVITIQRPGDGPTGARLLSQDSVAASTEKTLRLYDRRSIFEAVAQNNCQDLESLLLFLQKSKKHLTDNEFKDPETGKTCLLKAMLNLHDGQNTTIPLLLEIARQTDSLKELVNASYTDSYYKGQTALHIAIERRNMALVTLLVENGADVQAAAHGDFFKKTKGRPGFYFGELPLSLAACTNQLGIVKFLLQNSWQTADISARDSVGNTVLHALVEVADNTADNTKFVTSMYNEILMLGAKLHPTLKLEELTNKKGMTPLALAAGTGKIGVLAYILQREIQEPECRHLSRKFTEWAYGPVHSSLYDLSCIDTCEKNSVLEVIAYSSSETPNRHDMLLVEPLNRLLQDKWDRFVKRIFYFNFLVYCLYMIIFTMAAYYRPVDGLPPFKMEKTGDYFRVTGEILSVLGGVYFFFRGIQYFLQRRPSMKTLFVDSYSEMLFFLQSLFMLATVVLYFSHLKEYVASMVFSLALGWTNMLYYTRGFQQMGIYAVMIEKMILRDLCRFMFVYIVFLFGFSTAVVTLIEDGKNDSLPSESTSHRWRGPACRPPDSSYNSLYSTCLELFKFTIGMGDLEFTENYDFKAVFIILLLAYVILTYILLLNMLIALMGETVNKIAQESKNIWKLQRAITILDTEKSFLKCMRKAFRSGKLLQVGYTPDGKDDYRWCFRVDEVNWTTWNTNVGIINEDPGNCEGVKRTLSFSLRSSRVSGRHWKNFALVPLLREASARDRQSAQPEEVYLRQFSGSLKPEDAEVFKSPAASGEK
T3 sequence (O75762 whole entry, species assumed): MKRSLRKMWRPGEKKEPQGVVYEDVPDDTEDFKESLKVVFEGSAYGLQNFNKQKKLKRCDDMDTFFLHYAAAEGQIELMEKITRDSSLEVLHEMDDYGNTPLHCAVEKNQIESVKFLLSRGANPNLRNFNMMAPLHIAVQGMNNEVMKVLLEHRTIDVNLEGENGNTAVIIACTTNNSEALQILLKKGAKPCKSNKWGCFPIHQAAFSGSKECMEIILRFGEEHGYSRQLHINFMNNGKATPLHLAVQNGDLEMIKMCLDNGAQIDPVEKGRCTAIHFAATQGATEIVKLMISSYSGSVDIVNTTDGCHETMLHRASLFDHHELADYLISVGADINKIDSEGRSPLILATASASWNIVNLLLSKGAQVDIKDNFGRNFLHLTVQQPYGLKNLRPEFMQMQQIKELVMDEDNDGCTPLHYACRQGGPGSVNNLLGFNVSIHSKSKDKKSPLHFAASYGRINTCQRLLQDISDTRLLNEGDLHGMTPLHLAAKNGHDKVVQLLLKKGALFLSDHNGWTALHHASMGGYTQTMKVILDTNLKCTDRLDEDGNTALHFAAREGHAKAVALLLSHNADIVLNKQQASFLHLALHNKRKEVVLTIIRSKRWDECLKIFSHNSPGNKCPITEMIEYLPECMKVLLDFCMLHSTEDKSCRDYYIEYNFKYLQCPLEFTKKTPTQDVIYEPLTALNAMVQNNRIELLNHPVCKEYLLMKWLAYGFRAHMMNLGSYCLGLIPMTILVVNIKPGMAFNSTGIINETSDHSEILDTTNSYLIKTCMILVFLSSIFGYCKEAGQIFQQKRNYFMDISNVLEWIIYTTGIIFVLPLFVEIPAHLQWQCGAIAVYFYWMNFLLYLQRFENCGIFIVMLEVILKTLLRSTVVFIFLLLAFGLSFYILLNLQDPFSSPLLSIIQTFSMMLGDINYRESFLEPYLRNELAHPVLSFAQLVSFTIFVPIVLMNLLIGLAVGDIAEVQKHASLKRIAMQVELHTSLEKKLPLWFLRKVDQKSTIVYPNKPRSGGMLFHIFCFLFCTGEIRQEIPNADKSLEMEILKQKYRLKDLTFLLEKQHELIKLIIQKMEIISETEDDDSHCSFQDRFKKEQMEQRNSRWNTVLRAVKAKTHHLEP
Protocol for human ocular surface: Subjects received different ethanol-water concentrations either in eye drops or via the delivery unit. Subjects were asked to report irritation, stinging, burning sensations, or pain in the 2 to 5 min after application. The intensity of the subjective eye sensation was rated as 0, 1, 2 or 3 with: 0 as no effect; 1 as slight; 2 as a clear-cut effect; and 3 as severe.

On to `CCCCP(=O)(C(C)CC)C(C)CC` (centres unmarked) [2-4, 1 [di-sec-butyl-phosphinoyl]-butane], for which, at TRPM8 receptor, the “Potency relative to 1-menthol in the same assay” value (from here on “Potency relative to 1-menthol”) is given as 0.3 ×.

Consider `CCCCCP(=O)(C(C)CC)C(C)CC` (centres unmarked) [2-5, 1-di(sec-butyl) phosphinoyl-pentane], for which the “Stimulation of TRPV1” value at TRPV1 is listed as “does not stimulate”. For the same molecule, in the series on skin of the eyelids, the “Irritation when applied to the skin of the eyelids” value is listed as “minimal irritation”. The “Soothing and cooling sensations on the ocular surface after blinking” value with ocular surface (2 mg/mL in distilled water, spray ~0.1 mL over closed eye) was “all subjects felt soothing and cooling sensations”. Also, in the series with ocular surface (2 mg/mL spray over closed eye), the “Mean duration of cooling” value was determined as 42 ± 8 min, the Onset of cooling entry is reported as “less than 3 min”, the “Time by which all cooling sensations disappeared” value was ≤ 1 h and the “Time of maximal effect” value is ≤ 10 min. Besides, the Keratoepitheliopathy score entry in the series on ocular surface (after treatment) is on record as “not affected”. Also, in the series on ocular surface (all patients, 1.5 hr test period, 5 points of measurement), the “Mechanical sensitivity of the cornea (Cochet-Bonnet esthesiometer)” value is given as “not affected”. In addition, in the series with ocular surface (setting [1]), the “Tear Film BUT” value is given as “slightly elevated” and the Tear secretion rates entry is “slightly elevated”. Besides, the “Symptom score after treatment” value with ocular surface (dry eyes patients, scale zero to four, reduced from 1.8, P<0.001) is on record as 0.5. Besides, in the series on ocular surface (normal group), the “Tear Film BUT” value is “not significantly affected” and the Tear secretion rates entry is on record as “not significantly affected”. In addition, on TRPM8 receptor, the “Potency relative to 1-menthol” value is 2.2 ×. In addition, the “Stimulation of TRPA1” value at TRPA1 is listed as “does not stimulate”.

As for `CCCCCCP(=O)(C(C)CC)C(C)CC` (centres unmarked) [2-6, 1 [di-sec-butyl-phosphinoyl]-hexane], the “Potency relative to 1-menthol” value on TRPM8 receptor is 4-9 ×.

As for `CCCCCCCCP(=O)(C(C)CC)C(C)CC` (centres unmarked) [2-8, 1 [di-sec-butyl-phosphinoyl]-octane], the “Potency relative to 1-menthol” value on TRPM8 receptor worked out at 3.0 ×.

Take `CCO` [Ethanol]: the Sensation upon delivery entry is “clearly aversive as an eye drop, producing stinging and pain upon delivery” with human ocular surface (5% ethanol solution as an eye drop); “mild burning sensations in two subjects” with human ocular surface (20% applied to the eye with a wipe). Further, the “Irritancy, eye drops” value with human ocular surface (ethanol 2.5% wt/vol in water, scale 0-3 (0 no effect, 3 strongly irritating), N = 8 experiments) is 0; with human ocular surface (setting [2]) it was “+2”; in the series with human ocular surface (setting [3]), “+3”. In addition, the “Irritancy, delivery unit” value is given as 0 in the series on human ocular surface (ethanol 2.5% wt/vol in water, scale 0-3); 0 in the series on human ocular surface (setting [2]); 0 with human ocular surface (setting [3]); “+1” with human ocular surface (ethanol 20% wt/vol in water, scale 0-3). Also, the “Change in decreased sensitivity to irritation, swab method versus eye drops” value in the series with human ocular surface (ethanol/water) is listed as ~4 fold.

Values taken from patent publication US20150290029A1, “Delivery Systems for Agents to treat Ocular Discomfort” (priority 2014, published 2015).
